Experimental findings from PMC8844822, “SARM1 is a multi-functional NAD(P)ase with prominent base exchange activity, all regulated bymultiple physiologically relevant NAD metabolites” (iScience, 2022) are described below.

Molecules are shown by their SMILES.

What all share (format): biochemical
Assay [1] has as its target T1, hSARM1 full length (Homo sapiens, UniProt Q6SZW1).
T1 construct: Human recombinant SARM1 full length proteins (wild-type and E642A mutant); made in house
T1 sequence (Q6SZW1 28-724): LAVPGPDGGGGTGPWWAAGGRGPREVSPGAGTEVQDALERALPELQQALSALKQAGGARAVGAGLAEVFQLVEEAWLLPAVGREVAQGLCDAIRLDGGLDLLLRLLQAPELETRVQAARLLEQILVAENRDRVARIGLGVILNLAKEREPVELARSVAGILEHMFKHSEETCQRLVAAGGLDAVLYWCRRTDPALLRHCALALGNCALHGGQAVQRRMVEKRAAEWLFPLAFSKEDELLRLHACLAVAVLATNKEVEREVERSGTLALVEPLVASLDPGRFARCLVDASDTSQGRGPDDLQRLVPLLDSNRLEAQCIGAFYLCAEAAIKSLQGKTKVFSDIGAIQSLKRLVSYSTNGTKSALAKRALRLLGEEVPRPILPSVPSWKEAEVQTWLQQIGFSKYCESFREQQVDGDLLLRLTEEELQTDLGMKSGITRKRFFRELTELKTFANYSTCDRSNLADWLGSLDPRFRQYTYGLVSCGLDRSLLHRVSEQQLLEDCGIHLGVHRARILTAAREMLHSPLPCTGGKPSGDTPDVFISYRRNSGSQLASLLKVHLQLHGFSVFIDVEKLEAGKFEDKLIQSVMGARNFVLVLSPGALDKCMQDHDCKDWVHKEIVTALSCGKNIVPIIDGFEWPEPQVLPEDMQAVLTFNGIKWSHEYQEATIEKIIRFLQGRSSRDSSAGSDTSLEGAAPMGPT
Nature of the assay: NADase inhibition by pyridine ribosides (HPLC). To be noted: for NADase inhibition (in words): hSARM1, riboside fixed at 200 μM, NAD […]; for IC50: hSARM1 full length, saturating NAD ([…]), preliminary. How it is done: (§1) hSARM1 species were routinely assayed by the NAD/NADH-Glo^TM Assay (Promega) while both Aplysia cyclase and CD38 were assayed by fluorometry using ϵNAD ([Orsomando et al., 2000]). […] Other reagents used in addition to, or in place of those above are detailed in text or in figure legends, for example metal ions, free bases, dinucleotide analogues, mononucleotides, and ribosides. Assays were all carried out at 25°C except for temperature studies. Reactions were stopped by HClO4/K2CO3 and analysed by C18-HPLC as reported ([Mori et al., 2014]). Only the acid labile NADH and NADPH were treated with 1 N NaOH and neutralized using 1:1 vol of 1.73 M KH2CO3 while the highly hydrophobic metabolites vacor, VAD, VMN and VR, were analysed by a modified C18-HPLC method ([Buonvicino et al., 2018]). Reaction products were quantified from peak areas (see Figure 2A) based on coelution with standards (except for cyclic products from NAD analogues that were not available and were attributed based on UV-spectra and retention times as predicted). Rates were calculated as follows. Hydrolysis and cyclization were measured from product generation from the respective individual dinucleotide substrate used, e.g., free and cyclic ADP-ribosyl moieties from NAD (Figure 1B). A basal value for hydrolysis/cyclization was taken as sum of these latter two products. In addition to that value, base exchange or transglycosidation was calculated from the expected dinucleotide analog formed in the presence of the corresponding free base, e.g., AcPyrAD from AcPyr and NAD. The measured level of overall formed products matched in all cases the dinucleotide substrate consumed and the corresponding pyridine base released, according to the reaction scheme (Figure 1B). Furthermore, enzyme amounts forming 1 μmol/min of overall products above were referred to as single units (U) of activity and initial rates were always considered, for example until a maximum of 20% of the original substrate had been consumed and all products were still accumulating at a nearly linear rate.
(§2) Inhibition by ribosides was assayed by HPLC initially at fixed 200 μM of each NR, NaR or VR and optimized NAD concentrations for the different enzymes (see Figure 6 legend).

In assay [2] the target is T2, Aplysia californica ADP ribosyl cyclase (Aplysia californica, UniProt P29241).
T2 sequence (P29241 25-282): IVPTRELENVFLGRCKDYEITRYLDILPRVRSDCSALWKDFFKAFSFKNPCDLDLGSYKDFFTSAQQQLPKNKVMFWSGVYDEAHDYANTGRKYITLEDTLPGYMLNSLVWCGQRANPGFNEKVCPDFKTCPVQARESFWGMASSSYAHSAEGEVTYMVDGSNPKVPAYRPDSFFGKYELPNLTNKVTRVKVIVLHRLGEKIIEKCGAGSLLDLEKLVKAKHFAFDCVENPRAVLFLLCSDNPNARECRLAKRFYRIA
Nature of the assay: Base exchange reactions at neutral pH (HPLC). Set-up: purchased Merck A8950. How it is done: (§3) Multiple time stops from individual assays as above were analyzed for linearity, then extents of hydrolysis (white bars), cyclization (red bars), or base exchange (black bars) were calculated from each corresponding product as shown in Figure 1B and STAR methods. […] See also Figures S3–S5, and Table S1
(§4) Rates were calculated as follows.

The target in assay [3] is T1, hSARM1 full length. Nature of the assay: Base exchange reactions at neutral pH (HPLC). The method, then: as §3
as §1, with “NAD.” for “NAD. The measured level of overall formed products matched in all cases the dinucleotide substrate consumed and the corresponding pyridine base released, according to the reaction scheme (Figure 1B). Furthermore, enzyme amounts forming 1 μmol/min of overall products above were referred to as single units (U) of activity and initial rates were always considered, for example until a maximum of 20% of the original substrate had been consumed and all products were still accumulating at a nearly linear rate.”

The target in assay [4] is T3, hCD38 (Homo sapiens, UniProt P28907).
T3 construct: a soluble fragment Val43-Ile300 with 6x-His tag at C terminus; 6xHis (C); purchased R&D Systems
T3 sequence (P28907 43-300): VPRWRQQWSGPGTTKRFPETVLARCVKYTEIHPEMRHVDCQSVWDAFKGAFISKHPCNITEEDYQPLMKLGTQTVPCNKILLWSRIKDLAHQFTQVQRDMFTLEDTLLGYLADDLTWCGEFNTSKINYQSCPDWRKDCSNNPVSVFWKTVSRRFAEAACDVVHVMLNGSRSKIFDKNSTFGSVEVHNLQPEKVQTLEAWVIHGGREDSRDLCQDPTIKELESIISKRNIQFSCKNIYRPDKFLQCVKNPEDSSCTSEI
Nature of the assay: Base exchange reactions at neutral pH (HPLC). The method, then:
as §3
as §1, with “NAD.” for “NAD. The measured level of overall formed products matched in all cases the dinucleotide substrate consumed and the corresponding pyridine base released, according to the reaction scheme (Figure 1B). Furthermore, enzyme amounts forming 1 μmol/min of overall products above were referred to as single units (U) of activity and initial rates were always considered, for example until a maximum of 20% of the original substrate had been consumed and all products were still accumulating at a nearly linear rate.”

Assay [5] has as its target T4, hSARM1 SAM-TIR (Homo sapiens, UniProt Q6SZW1).
T4 construct: made in house
T4 sequence (Q6SZW1 409-724): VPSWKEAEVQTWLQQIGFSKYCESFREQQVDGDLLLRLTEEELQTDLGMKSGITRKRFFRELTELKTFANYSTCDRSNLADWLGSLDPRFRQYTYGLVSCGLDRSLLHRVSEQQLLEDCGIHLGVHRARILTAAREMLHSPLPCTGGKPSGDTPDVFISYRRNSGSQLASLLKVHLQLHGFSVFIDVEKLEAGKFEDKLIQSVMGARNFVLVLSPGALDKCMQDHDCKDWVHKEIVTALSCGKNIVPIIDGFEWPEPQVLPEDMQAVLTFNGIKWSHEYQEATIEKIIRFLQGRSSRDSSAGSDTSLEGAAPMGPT
Nature of the assay: Base exchange reactions at neutral pH (HPLC). The method, then:
as §3, §4

Assay [6] deals with T4, hSARM1 SAM-TIR. As to the kind of experiment: NADase inhibition by pyridine ribosides, IC50 and inhibition kinetics (HPLC). Particulars: for IC50: NAD […], preliminary; for Ki: variable NAD 15-600 μM. How it is done:
as §1, with “NAD.” for “NAD. The measured level of overall formed products matched in all cases the dinucleotide substrate consumed and the corresponding pyridine base released, according to the reaction scheme (Figure 1B). Furthermore, enzyme amounts forming 1 μmol/min of overall products above were referred to as single units (U) of activity and initial rates were always considered, for example until a maximum of 20% of the original substrate had been consumed and all products were still accumulating at a nearly linear rate.”
as §2

The mark [7] stands for this setting: NAD […] alone or + AcPyr 2 mM / Vacor 0.5 mM / Na 2 mM.
[8] abbreviates: NADP […] alone or + AcPyr 2 mM / Vacor 0.5 mM / Na 2 mM.
Setting [9] is: hSARM1 full length +NMN 0.2 mM, NAD […].
Setting [10] is: hSARM1 full length +NMN 0.2 mM, NADP […].
[11] abbreviates: hSARM1 full length +VMN 0.05 mM, NAD […].
Where [12] appears, read: hSARM1 full length +VMN 0.05 mM, NADP […].

Take `NC(=O)c1ccc[n+]([C@@H]2O[C@H](CO)[C@@H](O)[C@H]2O)c1` [NR, nicotinamide riboside]: the “NADase inhibition (in words)” value in assay [1] is “inactive”.

Regarding `O=C(O)c1cccnc1` [Na, nicotinic acid], the rate in assay [2] (setting [7]) stood at 14595 ±3147 mU/mg; in assay [2] (setting [8]) it was 9872 ±1846 mU/mg; in assay [3] (hSARM1 full length +NMN 0.2 mM, NAD […] alone or + free base) it was 201.5 ±27.9 mU/mg; in assay [3] (hSARM1 full length +NMN 0.2 mM, NADP […] alone or + free base), 131.9 ±10.5 mU/mg; in assay [3] (hSARM1 full length +VMN 0.05 mM, NAD […] alone or + free base), 199.0 ±17.6 mU/mg; in assay [3] (hSARM1 full length +VMN 0.05 mM, NADP […] alone or + free base), 147.6 ±4.76 mU/mg. The rate in assay [3] (hSARM1 full length, no trigger, NAD […] alone or + AcPyr 2 mM / Vacor 0.5 mM / Na 2 mM, pH 7.5) came out at 23.3 ±0.83 mU/mg; in assay [3] (hSARM1 full length, no trigger, NADP […] alone or + AcPyr 2 mM / Vacor 0.5 mM / Na 2 mM, pH 7.5), 17.3 ±0.54 mU/mg; in assay [4] (setting [7]), 7934 ±1182 mU/mg; in assay [4] (setting [8]), 3189 ±622 mU/mg; in assay [5] (setting [7]) it was 315.2 ±69.6 mU/mg; in assay [5] (setting [8]), 242.0 ±37.3 mU/mg. Also, the “base exchange, share of products” value in assay [3] (setting [9]) is listed as 1.58%; in assay [3] (setting [10]), 1.48%; in assay [3] (setting [11]), 1.68%; in assay [3] (setting [12]), 1.28%. The “cyclization, share of products” value is 8.35% in assay [3] (setting [9]), ~ 0.05% in assay [3] (setting [10]), 6.44% in assay [3] (setting [11]) and 0.69% in assay [3] (setting [12]). Moreover, the “hydrolysis, share of products” value amounted to 90.07% in assay [3] (setting [9]), 98.47% in assay [3] (setting [10]), 91.88% in assay [3] (setting [11]) and 98.03% in assay [3] (setting [12]). Moreover, the “rate (relative fold)” value in assay [3] (hSARM1 full length +NMN 0.2 mM, NAD […], relative to NAD alone without trigger) is given as 9.23 ±1.28 fold; in assay [3] (hSARM1 full length +NMN 0.2 mM, NADP […], relative to NADP alone without trigger), 8.98 ±0.711 fold; in assay [3] (hSARM1 full length +VMN 0.05 mM, NAD […], relative to NAD alone without trigger), 9.12 ±0.805 fold; in assay [3] (hSARM1 full length +VMN 0.05 mM, NADP […], relative to NADP alone without trigger), 10.04 ±0.324 fold. The “base exchange products VAD(P) or NaAD(P), share of total products” value in assay [3] (hSARM1 full length, NAD or NADP 250 μM, vacor 0.5 mM, Na 2 mM) was 2%–3%.

By IC50 is commonly meant the concentration needed to halve the response being measured. A word on the Ki: it is a measure of affinity in units of concentration, obtained from inhibition or displacement. A low value points to a stronger hold on the target. In assay [1], `O=C([O-])c1ccc[n+]([C@@H]2O[C@H](CO)[C@@H](O)[C@H]2O)c1` [NaR, nicotinic acid riboside] had an IC50 of 87 µM. In assay [6], the inhibition type entry is “mixed-type inhibition”, the IC50 amounted to 36 µM and the Ki was 15 µM.

Consider `O=C(NCc1ccc[n+]([C@@H]2O[C@H](CO)[C@@H](O)[C@H]2O)c1)Nc1ccc([N+](=O)[O-])cc1` [VR, vacor riboside], for which, in assay [1], the “NADase inhibition (in words)” value was “strongly inhibited” and inhibition was half-maximal at 154 µM (IC50). Also, in assay [6], the inhibition type entry is on record as “mixed-type inhibition”, it took 61 µM to reach half-maximal inhibition (IC50) and the affinity corresponds to a Ki of 25.9 µM.
